Measured values: patent publication US4724229A, “Arg-arg-arg-vasopressin antagonists” (Smithkline Beckman Corporation, priority 1986, dated 1988)
Numbered stars: 1 amine (or outer) side, 2 acyl side, 3 side chain; on linkers, the order of the positions; unused ones are H or OH. Bridge positions count the residues as written; N and C are the ends. Square brackets hold non-standard residues; d marks the D form. Peptide text beside a SMILES is read from it. X1 = O=C(CC1(S[*:2])CCCCC1)[*:1]

How the values were obtained:
[1] = molecular target: T1, LVP stimulated adenylate cyclase of pig kidney medullary membrane (Sus scrofa, UniProt P32307); assay: Inhibition of LVP stimulated adenylate cyclase of pig kidney medullary membrane; type: biochemical
T1 construct: stimulated adenylate cyclase of pig kidney medullary membrane; from tissue; host or cells: pig kidney medullary membranes
Method: (§1) V2 -antagonistic activity toward the natural anti-diuretic hormone (anti-ADH activity) is determined, in vitro, in the medullary tissue of hog or human kidneys and, in vivo, in the hydropenic rat. The in vitro assay procedures for vasopressin stimulated adenylate cyclase activation or vasopressin binding activity are described by F. Stassen et al., J. Pharmacology and Experimental Therapeutics, 223, 50-54 (1982). V1 -antagonistic activity is determined by procedures using the rat thoracic aorta tissue and plasma membranes of rat liver. These procedures are described in the noted Stassen publication and in a publication at the 1st International Conference on Diuretics, Miami, Fla., March (1984). Oxytocin antagonism is determined as described by W. Sawyer et al., Endocrinology, 106 81 (1979). | ^b Ki is the inhibition constant measured for inhibition of LVP | stimulated adenylate cyclase of pig kidney medullary membrane, and is | derived from the equation for competitive inhibition as described.

[2] = molecular target: T2, receptor in the porcine renal medullary membrane (vasopressin V2 -receptors) (Sus scrofa, UniProt P32307); assay: [3H]LVP binding, porcine renal medullary membrane (Kbind); details: competition with [3H]LVP binding, Kb = IC50/(1 + L/KD)
T2 construct: in the porcine renal medullary membrane; from tissue; host or cells: porcine renal medullary membranes
Method: V2 -antagonistic activity toward the natural anti-diuretic hormone (anti-ADH activity) is determined, in vitro, in the medullary tissue of hog or human kidneys and, in vivo, in the hydropenic rat. The in vitro assay procedures for vasopressin stimulated adenylate cyclase activation or vasopressin binding activity are described by F. Stassen et al., J. Pharmacology and Experimental Therapeutics, 223, 50-54 (1982). V1 -antagonistic activity is determined by procedures using the rat thoracic aorta tissue and plasma membranes of rat liver. These procedures are described in the noted Stassen publication and in a publication at the 1st International Conference on Diuretics, Miami, Fla., March (1984). Oxytocin antagonism is determined as described by W. Sawyer et al., Endocrinology, 106 81 (1979). | ^a Kbind is a measure of the affinity of a ligand for a receptor | in the porcine renal medullary membrane. It is derived from the equation | for competitive inhibition Kb = IC50 /(1 + L/KD) where | IC50 is the concentration of the ligand for 50% inhibition of [^ | H]LVP binding, L is the concentration of the ligand, and KD is the | dissociation constant of [^3 H]LVP.

[3] = molecular target: T3, receptor in the human liver membrane tissue (V1) (Homo sapiens, UniProt P37288); assay: Binding to human liver membranes V1 (Kbind)
T3 construct: in the human liver membrane tissue; from tissue; host or cells: human liver membranes
Method: as §1, with “(1979).” for “(1979). | ^b Ki is the inhibition constant measured for inhibition of LVP | stimulated adenylate cyclase of pig kidney medullary membrane, and is | derived from the equation for competitive inhibition as described.”
^d Kbind is a measure of the affinity of a ligand for a receptor
in the human liver membrane tissue. It is derived from the equation in […]

T2 sequence (P32307 whole entry): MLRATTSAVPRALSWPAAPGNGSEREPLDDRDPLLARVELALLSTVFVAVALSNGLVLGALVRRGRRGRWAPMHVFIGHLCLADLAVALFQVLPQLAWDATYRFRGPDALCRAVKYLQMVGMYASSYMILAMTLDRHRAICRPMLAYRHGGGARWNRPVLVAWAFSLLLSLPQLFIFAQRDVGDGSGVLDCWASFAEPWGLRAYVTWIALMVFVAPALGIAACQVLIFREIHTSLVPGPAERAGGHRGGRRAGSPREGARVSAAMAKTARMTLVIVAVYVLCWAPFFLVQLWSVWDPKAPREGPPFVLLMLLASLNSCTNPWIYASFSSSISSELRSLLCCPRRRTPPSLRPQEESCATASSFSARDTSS
T3 sequence (P37288 whole entry): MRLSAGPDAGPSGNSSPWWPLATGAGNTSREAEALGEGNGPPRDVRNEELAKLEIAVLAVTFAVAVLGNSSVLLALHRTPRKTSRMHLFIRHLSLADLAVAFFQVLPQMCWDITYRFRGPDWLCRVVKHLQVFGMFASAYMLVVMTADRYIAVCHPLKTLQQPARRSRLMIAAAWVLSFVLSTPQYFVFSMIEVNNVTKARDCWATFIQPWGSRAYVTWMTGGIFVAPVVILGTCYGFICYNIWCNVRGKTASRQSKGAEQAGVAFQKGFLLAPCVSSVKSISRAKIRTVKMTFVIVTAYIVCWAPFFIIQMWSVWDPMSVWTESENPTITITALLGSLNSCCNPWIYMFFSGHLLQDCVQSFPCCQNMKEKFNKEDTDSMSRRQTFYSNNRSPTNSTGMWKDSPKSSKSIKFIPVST
T1 sequence (P32307 whole entry): as the sequence (P32307 whole entry) above

Row | Ki [1] [nM] | Ki [2] [nM] | Ki [3] [nM] | SMILES
1 | 1.54 | 2.6 | 4.41 | CCOc1ccc(C[C@H]2NC(=O)CC3(CCCCC3)SSC[C@@H](C(=O)N[C@@H](CCCNC(=N)N)C(=O)N[C@@H](CCCNC(=N)N)C(=O)N[C@@H](CCCNC(=N)N)C(N)=O)NC(=O)[C@H](CC(N)=O)NC(=O)[C@H](C(C)C)NC(=O)[C@H](Cc3ccccc3)NC2=O)cc1 [No. 1, [1-(β-mercapto-β,β-cyclopentamethylenepropionic acid)-2-(O-ethyl)-D-tyrosine-4-valine-7-arginine-8-arginine-9-arginine]-vasopressin] ([dY](Et)FVNCRRR-NH2; linker N-5 via X1)
2 |  | 9.1 | 1.3 | CCOc1ccc(C[C@H]2NC(=O)CC3(CCCCC3)SSC[C@@H](C(=O)N[C@@H](CCCNC(=N)N)C(N)=O)NC(=O)[C@H](CC(N)=O)NC(=O)[C@H](C(C)C)NC(=O)[C@H](Cc3ccccc3)NC2=O)cc1 [compound 2] ([dY](Et)FVNCR-NH2; linker N-5 via X1)
3 | 1.7 | 3.4 | 1.3 | CCOc1ccc(C[C@H]2NC(=O)CC3(CCCCC3)SSC[C@@H](C(=O)N[C@@H](CCCNC(=N)N)C(=O)N[C@@H](CCCNC(=N)N)C(N)=O)NC(=O)[C@H](CC(N)=O)NC(=O)[C@H](C(C)C)NC(=O)[C@H](Cc3ccccc3)NC2=O)cc1 [compound 3] ([dY](Et)FVNCRR-NH2; linker N-5 via X1)
